# Results taken from US20250171431A1, “HETEROCYCLIC INHIBITORS OF IGF-1R FOR TREATMENT OF DISEASE” (HORIZON THERAPEUTICS IRELAND DAC, priority 2023, published 2025).
# Molecular target: IGF-1R (Homo sapiens (Human), UniProt P08069)
# Assay: Example B-1: IGF-1R Assay (PC3 cells, IGF1 stimulation, AlphaLISA)
# Type: cell-based
# Settings: 200 ng/mL IGF1 stimulation, read-out: Biological Activity against IGF-1R IC50
# Procedure, shortened: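 Readout is AlphaLISA signal from lysed PC3 cells, expressed as % inhibition versus vehicle and EC80 controls and banded by IC50. Before lysis, the cells were starved of serum for 2 h, exposed to 3× serially diluted compound for 2 h, and stimulated for 30 min with 200 ng/mL IGF1 (final).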
# Chain of IGF-1R (P08069 31-1367): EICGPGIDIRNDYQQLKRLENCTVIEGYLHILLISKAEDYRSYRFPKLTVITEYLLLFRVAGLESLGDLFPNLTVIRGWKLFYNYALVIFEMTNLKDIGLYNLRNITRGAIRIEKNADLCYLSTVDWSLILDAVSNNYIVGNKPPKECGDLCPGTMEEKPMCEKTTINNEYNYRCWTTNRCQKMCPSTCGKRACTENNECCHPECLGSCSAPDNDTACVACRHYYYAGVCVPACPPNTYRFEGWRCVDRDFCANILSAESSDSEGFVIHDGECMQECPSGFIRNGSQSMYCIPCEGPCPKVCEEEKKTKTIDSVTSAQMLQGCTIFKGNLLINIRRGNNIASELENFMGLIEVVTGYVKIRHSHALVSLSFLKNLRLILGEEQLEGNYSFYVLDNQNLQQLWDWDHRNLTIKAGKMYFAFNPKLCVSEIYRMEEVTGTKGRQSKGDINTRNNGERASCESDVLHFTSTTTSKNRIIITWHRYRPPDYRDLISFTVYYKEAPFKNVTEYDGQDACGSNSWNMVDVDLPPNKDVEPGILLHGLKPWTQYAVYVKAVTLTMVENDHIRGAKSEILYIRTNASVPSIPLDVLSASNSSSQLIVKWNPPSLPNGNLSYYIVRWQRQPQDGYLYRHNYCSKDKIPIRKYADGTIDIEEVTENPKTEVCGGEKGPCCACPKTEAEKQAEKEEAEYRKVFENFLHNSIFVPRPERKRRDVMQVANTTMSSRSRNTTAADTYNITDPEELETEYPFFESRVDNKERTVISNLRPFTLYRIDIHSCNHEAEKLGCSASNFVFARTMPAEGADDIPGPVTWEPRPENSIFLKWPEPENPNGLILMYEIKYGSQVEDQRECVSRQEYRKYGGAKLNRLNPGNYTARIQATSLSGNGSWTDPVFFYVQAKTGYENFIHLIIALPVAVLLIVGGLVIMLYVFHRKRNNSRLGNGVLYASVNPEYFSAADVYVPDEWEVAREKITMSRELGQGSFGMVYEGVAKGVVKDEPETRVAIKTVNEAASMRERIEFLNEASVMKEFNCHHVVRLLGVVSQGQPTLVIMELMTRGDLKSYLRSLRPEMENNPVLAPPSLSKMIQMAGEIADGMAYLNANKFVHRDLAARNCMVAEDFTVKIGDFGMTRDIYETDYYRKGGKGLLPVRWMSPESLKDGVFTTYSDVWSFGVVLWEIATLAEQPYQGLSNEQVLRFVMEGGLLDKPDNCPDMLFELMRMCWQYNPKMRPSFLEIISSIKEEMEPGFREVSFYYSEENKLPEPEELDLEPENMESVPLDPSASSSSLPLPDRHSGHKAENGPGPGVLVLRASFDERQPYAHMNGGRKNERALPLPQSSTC
row,Structure (SMILES),IC50
1,"COc1cc(Nc2nccc(Nc3ccc4c(O)nccc4c3)n2)ccc1O[C@H]1C[C@@H](N(C)C)C1 [Compound 266, 6-(2-{3-methoxy-4-[(1s,3s)-3-(dimethylamino)cyclobutoxy]phenylamino}-4-pyrimidinylamino)-1-isoquinolinol]",≤ 500 nM
2,"COc1cc(Nc2nccc(Nc3cnc4ccccc4c3)n2)cc(C#N)c1O[C@H]1C[C@H](N(C)C)C1 [Compound 267, 3-methoxy-5-[4-(3-quinolylamino)-2-pyrimidinylamino]-2-[(1r,3r)-3-(dimethylamino)cyclobutoxy] benzonitrile]",≤ 500 nM
3,"COc1cc(Nc2nccc(Nc3cnc4c(c3)OCC(C)(C)O4)n2)ccc1O[C@H]1C[C@@H](N(C)C)C1 [Compound 268, 4-(3,3-dimethyl-2,3-dihydro-1,4-dioxa-5-aza-7-naphthylamino)-2-{3-methoxy-4-[(1s,3s)-3-(dimethylamino)cyclobutoxy]phenylamino}pyrimidine]",≤ 500 nM
4,"COc1cc(Nc2nccc(Nc3cnc4c(F)cccc4c3)n2)cnc1O[C@H]1C[C@@H](N(C)C)C1 [Compound 270, 4-(8-fluoro-3-quinolylamino)-2-{5-methoxy-6-[(1s,3s)-3-(dimethylamino)cyclobutoxy]-3-pyridylamino}pyrimidine]",≤ 500 nM
5,"COc1cc(Nc2nccc(Nc3cnc4c(c3)OCC(C)(C)O4)n2)cnc1O[C@H]1C[C@@H](N(C)C)C1 [Compound 271, 4-(3,3-dimethyl-2,3-dihydro-1,4-dioxa-5-aza-7-naphthylamino)-2-{5-methoxy-6-[(1s,3s)-3-(dimethylamino)cyclobutoxy]-3-pyridylamino}pyrimidine]",≤ 500 nM
6,"COc1cc(Nc2nccc(Nc3cnc4cc(F)cnc4c3)n2)ccc1O[C@H]1C[C@@H](N(C)C)C1 [Compound 272, 4-(7-fluoro-1,5-diaza-3-naphthylamino)-2-{3-methoxy-4-[(1s,3s)-3-(dimethylamino)cyclobutoxy]phenylamino}pyrimidine]",≤ 500 nM
7,COc1cc(Nc2nccc(Nc3cnc4c(c3)OCCO4)n2)ccc1O[C@H]1CC[C@@H](N(C)C)CC1 [Compound 273],≤ 500 nM
8,"COc1cc(Nc2nccc(Nc3cnc4cncc(F)c4c3)n2)ccc1O[C@H]1C[C@@H](N(C)C)C1 [Compound 274, 4-(5-fluoro-1,7-diaza-3-naphthylamino)-2-{3-methoxy-4-[(1s,3s)-3-(dimethylamino)cyclobutoxy]phenylamino}pyrimidine]",2000 to 10000 nM
9,"COc1cc(Nc2nccc(Nc3ccc(Cl)nc3C(N)=O)n2)ccc1O[C@H]1C[C@@H](N(C)C)C1 [Compound 275, 6-chloro-3-(2-{3-methoxy-4-[(1s,3s)-3-(dimethylamino)cyclobutoxy]phenylamino}-4-pyrimidinylamino)-2-pyridinecarboxamide]",≤ 500 nM
10,"COc1cc(Nc2nccc(Nc3cnc4c(c3)OCCO4)n2)cnc1O[C@H]1C[C@@H](N(C)C)C1 [Compound 276, 4-(2,3-dihydro-1,4-dioxa-5-aza-7-naphthylamino)-2-{5-methoxy-6-[(1s,3s)-3-(dimethylamino)cyclobutoxy]-3-pyridylamino}pyrimidine]",≤ 500 nM
11,"COc1ccc2ncc(Nc3ccnc(Nc4ccc(O[C@H]5C[C@@H](N(C)C)C5)c(OC)c4)n3)cc2c1 [Compound 277, 4-(6-methoxy-3-quinolylamino)-2-{3-methoxy-4-[(1s,3s)-3-(dimethylamino)cyclobutoxy]phenylamino}pyrimidine]",≤ 500 nM
12,"COc1cc(Nc2nccc(Nc3cnc4cc(Cl)cnc4c3)n2)ccc1O[C@H]1C[C@@H](N(C)C)C1 [Compound 278, 4-(7-chloro-1,5-diaza-3-naphthylamino)-2-{3-methoxy-4-[(1s,3s)-3-(dimethylamino)cyclobutoxy]phenylamino}pyrimidine]",≤ 500 nM
13,"COc1cc(Nc2nccc(Nc3cnc4cc(Cl)cnc4c3)n2)cnc1O[C@H]1C[C@@H](N(C)C)C1 [Compound 279, 4-(7-chloro-1,5-diaza-3-naphthylamino)-2-{5-methoxy-6-[(1s,3s)-3-(dimethylamino)cyclobutoxy]-3-pyridylamino}pyrimidine]",500 to 2000 nM
14,"COc1cc(Nc2nccc(Nc3cnc4c(cnn4C)c3)n2)ccc1O[C@H]1C[C@@H](N(C)C)C1 [Compound 280, 2-{3-methoxy-4-[(1s,3s)-3-(dimethylamino)cyclobutoxy]phenylamino}-4-(1-methyl-1H-1,2,7-triazainden-5-ylamino)pyrimidine]",≤ 500 nM
15,"COc1cc(Nc2nccc(Nc3cnc4[nH]cc(C)c4c3)n2)ccc1O[C@H]1C[C@@H](N(C)C)C1 [Compound 281, 2-{3-methoxy-4-[(1s,3s)-3-(dimethylamino)cyclobutoxy]phenylamino}-4-(3-methyl-1H-1,7-diazainden-5-ylamino)pyrimidine]",≤ 500 nM
16,"COc1cc(Nc2nccc(Nc3cnc4c(ccn4C)c3)n2)ccc1O[C@H]1C[C@@H](N(C)C)C1 [Compound 282, 2-{3-methoxy-4-[(1s,3s)-3-(dimethylamino)cyclobutoxy]phenylamino}-4-(1-methyl-1H-1,7-diazainden-5-ylamino)pyrimidine]",≤ 500 nM

row,Structure (SMILES),IC50
1,"COc1cc(Nc2nccc(Nc3cnc4[nH]c(C)cc4c3)n2)ccc1O[C@H]1C[C@@H](N(C)C)C1 [Compound 283, 2-{3-methoxy-4-[(1s,3s)-3-(dimethylamino)cyclobutoxy]phenylamino}-4-(2-methyl-1H-1,7-diazainden-5-ylamino)pyrimidine]",≤ 500 nM
2,"COc1cc(Nc2nccc(Nc3cccnc3C(N)=O)n2)ccc1O[C@H]1C[C@@H](N(C)C)C1 [Compound 284, 3-(2-{3-methoxy-4-[(1s,3s)-3-(dimethylamino)cyclobutoxy]phenylamino}-4-pyrimidinylamino)-2-pyridinecarboxamide]",≤ 500 nM
3,"COc1cc(Nc2nccc(Nc3cnc4ccc(Cl)nc4c3)n2)ccc1O[C@H]1C[C@H](N(C)C)C1 [Compound 285, 4-(6-chloro-1,5-diaza-3-naphthylamino)-2-{3-methoxy-4-[(1r,3r)-3-(dimethylamino)cyclobutoxy]phenylamino}pyrimidine]",≤ 500 nM
4,"COc1cc(Nc2nccc(Nc3cnc4ccc(Cl)cc4c3)n2)ccc1O[C@H]1CC[C@@H](N(C)C)CC1 [Compound 286, 4-(6-chloro-3-quinolylamino)-2-{3-methoxy-4-[(1s,4s)-4-(dimethylamino)cyclohexyloxy]phenylamino}pyrimidine]",≤ 500 nM
5,"COc1cc(Nc2nccc(Nc3cnc4cc(F)c(F)cc4c3)n2)cnc1O[C@H]1C[C@@H](N(C)C)C1 [Compound 289, 4-(6,7-difluoro-3-quinolylamino)-2-{5-methoxy-6-[(1s,3s)-3-(dimethylamino)cyclobutoxy]-3-pyridylamino}pyrimidine]",500 to 2000 nM
6,"COc1cc(Nc2nccc(Nc3cnc4c(F)cc(F)cc4c3)n2)cnc1O[C@H]1C[C@@H](N(C)C)C1 [Compound 290, 4-(6,8-difluoro-3-quinolylamino)-2-{5-methoxy-6-[(1s,3s)-3-(dimethylamino)cyclobutoxy]-3-pyridylamino}pyrimidine]",≤ 500 nM
7,"COc1cc(Nc2nccc(Nc3cnc4cc(Br)cnc4c3)n2)ccc1OC1CN(C)C1 [Compound 292, 4-(7-bromo-1,5-diaza-3-naphthylamino)-2-[3-methoxy-4-(1-methyl-3-azetidinyloxy)phenylamino] pyrimidine]",2000 to 10000 nM
8,"COc1cc(Nc2nccc(Nc3cnc4ccc(Cl)cc4c3)n2)ccc1OC1CN(C)C1 [Compound 293, 4-(6-chloro-3-quinolylamino)-2-[3-methoxy-4-(1-methyl-3-azetidinyloxy)phenylamino] pyrimidine]",> 10000 nM
9,"CN1CC(Oc2ccc(Nc3nccc(Nc4cnc5ccc(Cl)cc5c4)n3)cc2)C1 [Compound 294, 4-(6-chloro-3-quinolylamino)-2-[p-(1-methyl-3-azetidinyloxy)phenylamino] pyrimidine]",2000 to 10000 nM
10,"CN1CC(Oc2ccc(Nc3nccc(Nc4cnc5ccccc5c4)n3)cc2)C1 [Compound 295, 2-[p-(1-methyl-3-azetidinyloxy)phenylamino]-4-(3-quinolylamino)pyrimidine]",2000 to 10000 nM
11,"COc1cc(Nc2nccc(Nc3cc4ccccc4nc3C(=O)O)n2)ccc1O[C@H]1C[C@@H](N(C)C)C1 [Compound 296, 3-(2-{3-methoxy-4-[(1s,3s)-3-(dimethylamino)cyclobutoxy]phenylamino}-4-pyrimidinylamino)-2-quinolinecarboxylic acid]",> 10000 nM
12,"COc1cc(Nc2nccc(Nc3cnc4c(F)c(F)ccc4c3)n2)ccc1O[C@H]1C[C@@H](N(C)C)C1 [Compound 298, 4-(7,8-difluoro-3-quinolylamino)-2-{3-methoxy-4-[(1s,3s)-3-(dimethylamino)cyclobutoxy]phenylamino}pyrimidine]",≤ 500 nM
13,"COc1cc(Nc2nccc(Nc3cnc4cc[nH]c4c3)n2)ccc1O[C@H]1C[C@@H](N(C)C)C1 [Compound 299, 4-(1H-1,4-diazainden-6-ylamino)-2-{3-methoxy-4-[(1s,3s)-3-(dimethylamino)cyclobutoxy]phenylamino}pyrimidine]",500 to 2000 nM
14,"COc1cc(Nc2nccc(Nc3cnc4[nH]ncc4c3)n2)ccc1O[C@H]1C[C@@H](N(C)C)C1 [Compound 300, 2-{3-methoxy-4-[(1s,3s)-3-(dimethylamino)cyclobutoxy]phenylamino}-4-(1H-1,2,7-triazainden-5-ylamino)pyrimidine]",500 to 2000 nM
15,"COc1cc(Nc2nccc(Nc3cnc4[nH]ccc4c3)n2)ccc1O[C@H]1C[C@@H](N(C)C)C1 [Compound 301, 4-(1H-1,7-diazainden-5-ylamino)-2-{3-methoxy-4-[(1s,3s)-3-(dimethylamino)cyclobutoxy]phenylamino}pyrimidine]",≤ 500 nM
16,"C#Cc1ccc2ncc(Nc3ccnc(Nc4ccc(O[C@H]5C[C@@H](N(C)C)C5)c(OC)c4)n3)cc2c1 [Compound 302, 4-(6-ethynyl-3-quinolylamino)-2-{3-methoxy-4-[(1s,3s)-3-(dimethylamino)cyclobutoxy]phenylamino}pyrimidine]",≤ 500 nM
